Assay results: article PMC8661032, “Broad-Spectrum Antibacterial Peptide Kills Extracellular and Intracellular Bacteria Without Affecting Epithelialization” (Frontiers in Microbiology, 2021)
≈ marks a conversion by molar mass, not a printed value.

Experiments:
Test in all cases: microbe, parasite or virus in culture
S. aureus = details: for MIC: CAMHB, 24 h, three independent experiments
Description: (§1) Briefly, bacterial colonies from blood agar plates were suspended and grown in Cation-Adjusted Mueller-Hinton Broth (CAMHB, […] Ca^2+, […] Mg^2+). The bacterial suspension was adjusted to 0.5 McFarland standard (∼1 × 10^8 colony-forming units (CFU)/ml) and serial diluted 1:200 in CAMHB (∼5 × 10^5 CFU/mL). […] The suspension was plated out on blood agar plates to confirm the CFU/ml. Both the microtiter plates and the blood agar plates were incubated at 37°C for 24 h.

E. coli = details: for MIC: Escherichia coli
Description: as §1

K. pneumoniae = details: for MIC: Klebsiella pneumoniae
Description: as §1

[1] = Staphylococcus aureus, ATCC29213, 24 h, Reference strain ATCC 29213
[2] = Staphylococcus aureus, MRSA, Clinical isolate SO-SAU19-1 (MRSA)
[3] = SO-ECO19-1 (ESBL-CARB-A(CTX-M-24)/D(OXA-48))

Compound	Combination effect with 0.5× MIC betatide (S. aureus; ATCC 29213)	Combination effect with 0.5× MIC betatide (S. aureus; SO-SAU19-1 (MRSA))	MIC (S. aureus; [1]) [µg/mL]	MIC (S. aureus; [2]) [µg/mL]	MIC (E. coli; 24 h) [µg/mL]	MIC (E. coli; MG1655, 24 h) [µg/mL]	Combination effect with 0.5× MIC betatide (E. coli; MG1655)	Combination effect with 0.5× MIC betatide (E. coli; [3])	other results
CO[C@@]1(NC(=O)Cc2cccs2)C(=O)N2C(C(=O)O)=C(COC(N)=O)CS[C@@H]21 [Cefoxitin, cefoxitin]	None	Additive 2×	4 (≈ 9.36 µM)	32 (≈ 74.9 µM)	–	–	–	–	–
CO/N=C(\C(=O)N[C@@H]1C(=O)N2C(C(=O)O)=C(CSc3nc(=O)c(=O)[nH]n3C)CS[C@H]12)c1csc(N)n1 [Ceftriaxone, ceftriaxone]	–	–	–	–	1020 (≈ 1850 µM)	0.06 (≈ 0.108 µM)	None	Additive 4×	–
CCC[C@@H]1C[C@@H](C(=O)N[C@@H]([C@H]2O[C@H](SC)[C@H](O)[C@@H](O)[C@H]2O)[C@H](C)Cl)N(C)C1 [Clindamycin, clindamycin]	Additive 2×	Additive 2×	0.25 (≈ 0.588 µM)	2050 (≈ 4820 µM)	–	–	–	–	–
C[C@@H](O)[C@H]1C(=O)N2C(C(=O)O)=C(S[C@@H]3CN[C@H](C(=O)Nc4cccc(C(=O)O)c4)C3)[C@H](C)[C@H]12 [Ertapenem, ertapenem]	–	–	–	–	64 (≈ 135 µM)	0.06 (≈ 0.126 µM)	None	Additive 2×	Combination effect with 0.5× MIC betatide (K. pneumoniae; ATCC 13883): Additive 4×; MIC (K. pneumoniae; 24 h): 32 µg/mL (≈ 67.3 µM); MIC (K. pneumoniae; ATCC13883, 24 h): 0.03 µg/mL (≈ 0.0631 µM); Combination effect with 0.5× MIC betatide (K. pneumoniae; SO-KPN19-1 (ESBL-CARBA-D)): Additive 2×
CC(=O)O[C@H]1C[C@@]2(C)[C@@H](C[C@@H](O)[C@H]3[C@@]4(C)CC[C@@H](O)[C@@H](C)[C@@H]4CC[C@@]32C)/C1=C(\CCC=C(C)C)C(=O)O [Fusidic acid, fusidic acid]	Additive, 2×	Additive 8×	0.25 (≈ 0.484 µM)	0.25 (≈ 0.484 µM)	–	–	–	–	Combination effect with 0.5× MIC betatide (S. aureus; SO-SAU 19-2 (FR-MRSA)): Additive 2×; Combination effect with 0.5× MIC betatide (S. aureus; SO-SAU 19-3 (FR-MRSA)): Additive 4×; Combination effect with 0.5× MIC betatide (S. aureus; SO-SAU 19-4 (FR-MRSA)): Additive 2×; MIC (S. aureus; SO-SAU 19-4 (FR-MRSA)): 8 µg/mL (≈ 15.5 µM); MIC (S. aureus; Staphylococcus aureus, MRSA, SO-SAU 19-2 (FR-MRSA)): 8 µg/mL (≈ 15.5 µM); reduction in MIC of fusidic acid when combined with 0.5× MIC betatide (S. aureus; fusidic acid-sensitive MRSA strain): 8 ×
